Experimental data taken from US7888332B2, “Hydrazide-containing CFTR inhibitor compounds and uses thereof” (The Regents of the University of California, priority 2004, dated 2011).

Key:
[1] = target: T1, CFTR (cAMP-stimulated short-circuit current) in human airway cells (Homo sapiens, UniProt P13569); experiment: Short-circuit current in human airway (primary human bronchial) cells; type: cell-based; settings: primary human bronchial cell cultures
T1 construct: endogenous in cells; host or cells: primary human bronchial epithelial cell cultures
T1 sequence (P13569 whole entry): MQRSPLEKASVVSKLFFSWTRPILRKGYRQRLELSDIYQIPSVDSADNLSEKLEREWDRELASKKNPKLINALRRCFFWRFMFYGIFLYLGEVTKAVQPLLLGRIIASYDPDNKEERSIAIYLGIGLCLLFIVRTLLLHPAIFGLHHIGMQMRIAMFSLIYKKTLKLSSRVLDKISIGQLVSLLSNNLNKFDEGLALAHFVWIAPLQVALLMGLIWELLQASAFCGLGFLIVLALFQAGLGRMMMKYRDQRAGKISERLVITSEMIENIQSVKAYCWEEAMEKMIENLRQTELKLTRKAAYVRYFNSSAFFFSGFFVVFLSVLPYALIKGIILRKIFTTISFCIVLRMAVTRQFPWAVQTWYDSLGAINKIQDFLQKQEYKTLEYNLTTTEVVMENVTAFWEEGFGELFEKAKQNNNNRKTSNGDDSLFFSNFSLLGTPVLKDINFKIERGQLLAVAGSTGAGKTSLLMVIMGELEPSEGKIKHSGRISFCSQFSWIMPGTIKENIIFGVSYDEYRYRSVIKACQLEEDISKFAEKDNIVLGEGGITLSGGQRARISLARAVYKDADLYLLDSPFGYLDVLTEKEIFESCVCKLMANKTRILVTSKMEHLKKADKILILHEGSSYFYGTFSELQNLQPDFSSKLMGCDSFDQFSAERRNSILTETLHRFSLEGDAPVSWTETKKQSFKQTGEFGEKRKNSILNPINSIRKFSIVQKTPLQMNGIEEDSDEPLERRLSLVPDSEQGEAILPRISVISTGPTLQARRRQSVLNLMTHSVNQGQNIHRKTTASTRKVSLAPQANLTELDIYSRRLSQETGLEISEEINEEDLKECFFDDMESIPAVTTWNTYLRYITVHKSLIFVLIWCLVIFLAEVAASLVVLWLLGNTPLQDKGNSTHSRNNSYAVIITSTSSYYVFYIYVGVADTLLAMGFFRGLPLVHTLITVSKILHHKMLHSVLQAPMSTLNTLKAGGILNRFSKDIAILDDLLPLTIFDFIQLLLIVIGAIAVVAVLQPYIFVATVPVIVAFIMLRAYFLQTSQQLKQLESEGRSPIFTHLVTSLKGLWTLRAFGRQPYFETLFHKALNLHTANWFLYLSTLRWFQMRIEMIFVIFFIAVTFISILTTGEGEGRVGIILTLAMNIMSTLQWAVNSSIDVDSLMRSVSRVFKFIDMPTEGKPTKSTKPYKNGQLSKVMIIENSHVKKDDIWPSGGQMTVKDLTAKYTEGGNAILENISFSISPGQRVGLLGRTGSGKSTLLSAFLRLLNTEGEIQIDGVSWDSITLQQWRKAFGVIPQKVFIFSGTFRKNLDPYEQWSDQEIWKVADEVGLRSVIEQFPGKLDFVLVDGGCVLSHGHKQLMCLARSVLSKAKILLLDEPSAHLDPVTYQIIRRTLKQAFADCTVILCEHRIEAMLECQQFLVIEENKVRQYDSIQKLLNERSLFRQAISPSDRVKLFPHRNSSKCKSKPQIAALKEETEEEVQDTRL
Method: (§1) The efficacy of GlyH-101 in inhibiting cAMP/cholera toxin-induced intestinal fluid secretion was also evaluated. Short-circuit current experiments were done in different cell types and in intact mouse ileum under non-permeabilized conditions and in the absence of a Cl^− gradient. In each case CFTR was activated by CPT-cAMP after ENaC inhibition by amiloride. […] Inhibition was ˜100% at higher GlyH-101 concentrations. Cholera toxin-induced intestinal fluid secretion was measured in an in vivo closed-loop model in which loops for each mouse were injected with saline (control), cholera toxin (1 μg), or cholera toxin (1 μg)+GlyH-101 (0.25 μg). GlyH-101 was added to the lumen (rather than systemically) based on initial studies showing poor intestinal absorption and little effect of systemically administered compound. Compared to the saline control, the cholera toxin-induced increase in fluid secretion over 4 hours, quantified from loop weight-to-length ratio, was 80% reduced by GlyH-101.

[2] = target: T2, CFTR (cAMP-stimulated short-circuit current) in T84 cells (Homo sapiens, UniProt P13569); experiment: Short-circuit current in non-permeabilized T84 cells; type: cell-based
T2 construct: endogenous in cells; host or cells: T84 colon epithelial cells
T2 sequence (P13569 whole entry): as above
Method: as §1

[3] = Spectrophotometric pH titration (pKa); type: physicochemical
Method: FIG. 5A is a graph illustrating the pH-dependent absorbance changes (right panel) of the chemical compounds (10 μM) (corresponding chemical structures, left panel) in NaCl (100 mM) containing MES, HEPES, boric acid, and citric acid (each 10 mM) titrated to different pH using HCl/NaOH. Absorbance changes measured at analytical wavelengths of 346, 348, 346, and 236 nm (top to bottom).

[4] = target: upper airway CFTR Cl− conductance (Mus musculus, UniProt P26361); experiment: Nasal potential difference measurements in mice
upper airway CFTR Cl− conductance, sequence (P26361 whole entry): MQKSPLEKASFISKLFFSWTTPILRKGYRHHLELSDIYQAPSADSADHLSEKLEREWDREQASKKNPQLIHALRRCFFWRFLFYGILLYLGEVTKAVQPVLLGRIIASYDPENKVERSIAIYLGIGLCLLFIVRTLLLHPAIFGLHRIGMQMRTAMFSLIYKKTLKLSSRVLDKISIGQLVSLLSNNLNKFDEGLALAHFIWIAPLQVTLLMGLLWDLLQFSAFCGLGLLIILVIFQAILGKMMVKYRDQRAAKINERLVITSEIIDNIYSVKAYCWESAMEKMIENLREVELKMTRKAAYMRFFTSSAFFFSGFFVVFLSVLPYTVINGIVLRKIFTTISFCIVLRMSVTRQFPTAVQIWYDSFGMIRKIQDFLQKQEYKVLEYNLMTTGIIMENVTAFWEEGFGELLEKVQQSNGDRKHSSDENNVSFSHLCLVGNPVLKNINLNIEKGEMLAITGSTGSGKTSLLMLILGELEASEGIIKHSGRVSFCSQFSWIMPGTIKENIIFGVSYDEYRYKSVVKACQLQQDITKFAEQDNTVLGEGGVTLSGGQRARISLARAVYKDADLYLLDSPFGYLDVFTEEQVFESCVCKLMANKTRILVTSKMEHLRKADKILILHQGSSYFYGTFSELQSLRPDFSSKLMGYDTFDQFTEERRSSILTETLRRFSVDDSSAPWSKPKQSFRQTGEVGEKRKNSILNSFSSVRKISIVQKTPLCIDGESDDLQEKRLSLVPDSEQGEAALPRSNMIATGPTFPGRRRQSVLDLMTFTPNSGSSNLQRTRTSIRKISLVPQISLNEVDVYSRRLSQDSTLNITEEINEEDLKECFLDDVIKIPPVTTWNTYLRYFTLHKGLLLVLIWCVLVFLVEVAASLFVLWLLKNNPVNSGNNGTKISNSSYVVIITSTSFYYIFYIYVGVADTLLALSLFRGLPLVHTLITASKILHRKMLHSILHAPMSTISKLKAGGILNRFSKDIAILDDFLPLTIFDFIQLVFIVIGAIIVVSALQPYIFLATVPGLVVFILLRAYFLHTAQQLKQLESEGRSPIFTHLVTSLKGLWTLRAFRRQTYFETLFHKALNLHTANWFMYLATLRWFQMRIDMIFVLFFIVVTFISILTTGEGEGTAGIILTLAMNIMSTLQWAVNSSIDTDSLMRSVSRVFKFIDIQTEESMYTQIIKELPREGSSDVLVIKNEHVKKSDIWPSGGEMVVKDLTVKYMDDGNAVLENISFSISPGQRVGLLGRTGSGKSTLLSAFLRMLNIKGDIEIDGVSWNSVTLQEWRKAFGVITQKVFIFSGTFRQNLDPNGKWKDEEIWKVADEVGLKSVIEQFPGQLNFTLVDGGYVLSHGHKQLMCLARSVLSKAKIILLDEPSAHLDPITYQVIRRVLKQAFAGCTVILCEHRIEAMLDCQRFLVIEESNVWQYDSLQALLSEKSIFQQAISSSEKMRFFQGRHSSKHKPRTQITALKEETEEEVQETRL

[5] = test system: cholera toxin-induced intestinal fluid secretion; design: species or system mice; settings: mouse, in vivo
CFTR [6] = target: T3, CFTR (Homo sapiens, UniProt P13569); experiment: Whole-cell patch-clamp on FRT cells expressing CFTR; type: cell-based; design: expressed in transfected cells; host or cells: Fisher Rat Thyroid (FRT) cells, stably transfected; settings: for Ki: 5 μM forskolin, read-out: apparent Ki
T3 sequence (P13569 whole entry): as the sequence (P13569 whole entry) above
Method: Patch-clamp experiments were carried out at room temperature on FRT cells stably expressing wildtype CFTR. Cell-attached and whole-cell configurations were used (Hamill et al., Pflugers Arch. 391:85-100, 1981). The cell membrane was clamped at specified voltages using an EPC-7 patch-clamp amplifier (List Medical). Data were filtered at 500 Hz and digitized at 2000 Hz. For whole-cell experiments the pipette solution contained (in mM): 120 CsCl, 10 TEA-Cl, 0.5 EGTA, 1 MgCl2, 40 mannitol, 10 Cs-HEPES and 3 mM MgATP (pH 7.3). For cell attached experiments EGTA was replaced with 1 mM CaCl2. The bath solution for whole-cell experiments contained (in mM): 150 NaCl, 1 CaCl2, 1 MgCl2, 10 glucose, 10 mannitol, 10 Na-TES (pH 7.4). In cell-attached experiments the bath solution contained (in mM): 130 KCl, 2 NaCl, 2 CaCl2, 2 MgCl2, 10 glucose, 20 mannitol, and 10 K-Hepes (pH 7.3). Inhibitors were applied by extracellular perfusion. CFTR channel activity in cell-attached patches was analyzed as described previously (Taddei et al., FEBS Lett. 558:52-56, 2004).
The mechanism of CFTR block by GlyH-101 was studied using the whole-cell configuration of the patch-clamp technique. After maximal activation of CFTR in stably transfected FRT cells by 5 μM forskolin, current-voltage relationships were measured at GlyH-101 concentrations from 0 to 50 μM. […] Extracellular perfusion with 10 μM GlyH-101 produced an immediate reduction in current that was strongly dependent on membrane potential (FIG. 4A, right panel). At more positive membrane potentials outward positive currents (Cl^− movement into the cell) were reduced compared to inward currents. […] Data for the thiazolidinone 3-[(3-trifluoromethyl)phenyl]-5-[(4-carboxyphenyl)methylene]-2-thioxo-4-thiazolidinone (referred to herein as CFTRinh-172) (5 μM) is shown for comparison. […] FIG. 4C summarizes percentage CFTR current block as a function of GlyH-101 concentration at different membrane voltages.

CFTR [7] = target: T3, CFTR; experiment: Short-circuit current (apical Cl− current) analysis on permeabilized CFTR-expressing FRT cells
[8] = target: T4, CFTR (cAMP-stimulated short-circuit current) in mouse ileum (Mus musculus, UniProt P26361); experiment: Short-circuit current in intact mouse ileum
T4 construct: from tissue; host or cells: isolated mouse ileal segments in a micro-Ussing chamber
T4 sequence (P26361 whole entry): as the sequence (P26361 whole entry) above
Method: as §1

[9] = Initial studies of GlyH-101 intestinal absorption and systemic administration; type: in vivo
Method: as §1

[10] = CPT-cAMP after amiloride, read-out: Ki for inhibition of cAMP-stimulated short-circuit current

For `O=C(CNc1ccc2ccccc2c1)NN=Cc1cc(Br)c(O)c(Br)c1O` [GlyH-101, N-2-napthalenyl-[(3,5-dibromo-2,4-dihydroxyphenyl)methylene]glycine hydrazide], the “Inhibition at higher concentrations” value [1] was about 100%, the Ki [1, 10] was about 5 µM and the “Inhibition at higher concentrations” value [2] was about 100%. The Ki [2, 10] was about 5 µM, the “pKa, first (para) phenolic hydroxyl” value [3] was about 5.5 and the “pKa, second ortho hydroxyl” value [3] was about 8.5. The “pKa, secondary amine” value [3] was about 4.7, the ionic form ([3]; pH between 6 and 8) was “singly charged anion” and the “PD change (ΔPD), paired analysis” value ([4]; after ˜4 mV hyperpolarization by forskolin) was “depolarization of similar magnitude”. The “inhibition of forskolin-induced hyperpolarization” value ([4]; compound in all solutions (10 μM)) was “substantial inhibition”, the “effect on forskolin-induced hyperpolarization of nasal PD” value ([4]; topical in perfusate, 10 μM) was “rapidly reversed” and the “reduction of cholera toxin-induced increase in fluid secretion (loop weight-to-length ratio)” value [5] was 80%. For the same molecule, the “water solubility compared to CFTRinh-172” value (Water solubility) was 50 fold, the water solubility (Water solubility; in water, 22° C., pH 6-8) was 800 to 1300 µM and the “increase of apparent Ki as applied potential varied from +60 to −60 mV” value (CFTR [6]) was “approximately four-fold”. The “Hill coefficient nH” value (CFTR [6]; +20 mV) was 0.7, the Ki (CFTR [6]; +20 mV) was 3.8 µM and the “Hill coefficient nH” value (CFTR [6]; +60 mV) was 0.5. For the same molecule, the Ki (CFTR [6]; +60 mV) was 1.4 µM, the current-voltage relationship (CFTR [6]; GlyH-101 at submaximal concentrations, CFTRinh-172 5 μM) was “inward rectification” and the “Hill coefficient nH” value (CFTR [6]; −20 mV) was 1.3. For the same molecule, the Ki (CFTR [6]; −20 mV) was 5 µM, the “Hill coefficient nH” value (CFTR [6]; −60 mV) was 1.8 and the Ki (CFTR [6]; −60 mV) was 5.6 µM. For the same molecule, the “inhibition of CFTR Cl− conductance at high concentrations” value (CFTR [6]; ≧30 μM, whole-cell patch-clamp and short-circuit current experiments) was “fully inhibited”, the “% inhibition at 50 μM” value (CFTR [7]; Table 1, Group I, 50 μM) was 95% and the Ki (CFTR [7]; Table 1, Group I, concentration giving 50% inhibition of CFTR Cl− conductance) was 5 µM. The “pH dependence of Ki for inhibition of CFTR Cl− current” value (CFTR [7]; pH range 6-8) was “independent of pH”, the Ki (CFTR [7]; read-out: Ki of screening hits, dose-response measurements, confirmed by short-circuit current analysis) was about 5 µM and the “Inhibition at higher concentrations” value [8] was about 100%. The Ki [8, 10] was about 5 µM, the “effect of systemically administered compound” value [9] was “little effect” and the intestinal absorption [9] was “poor”.
